The text below walks through data of article PMC2919811 (Analytical biochemistry, 2010).

Like-named read-outs stand apart in the source and are kept apart here.

The target of data set [1] is T1, OATP1B1 (Homo sapiens, UniProt Q9Y6L6). The following applies: read-out: OATP1B1 Km; literature value; cited from earlier work.
Data set [2] addresses T2, OATP1B3 (Homo sapiens, UniProt Q9NPD5).
T2 sequence (Q9NPD5 1-702): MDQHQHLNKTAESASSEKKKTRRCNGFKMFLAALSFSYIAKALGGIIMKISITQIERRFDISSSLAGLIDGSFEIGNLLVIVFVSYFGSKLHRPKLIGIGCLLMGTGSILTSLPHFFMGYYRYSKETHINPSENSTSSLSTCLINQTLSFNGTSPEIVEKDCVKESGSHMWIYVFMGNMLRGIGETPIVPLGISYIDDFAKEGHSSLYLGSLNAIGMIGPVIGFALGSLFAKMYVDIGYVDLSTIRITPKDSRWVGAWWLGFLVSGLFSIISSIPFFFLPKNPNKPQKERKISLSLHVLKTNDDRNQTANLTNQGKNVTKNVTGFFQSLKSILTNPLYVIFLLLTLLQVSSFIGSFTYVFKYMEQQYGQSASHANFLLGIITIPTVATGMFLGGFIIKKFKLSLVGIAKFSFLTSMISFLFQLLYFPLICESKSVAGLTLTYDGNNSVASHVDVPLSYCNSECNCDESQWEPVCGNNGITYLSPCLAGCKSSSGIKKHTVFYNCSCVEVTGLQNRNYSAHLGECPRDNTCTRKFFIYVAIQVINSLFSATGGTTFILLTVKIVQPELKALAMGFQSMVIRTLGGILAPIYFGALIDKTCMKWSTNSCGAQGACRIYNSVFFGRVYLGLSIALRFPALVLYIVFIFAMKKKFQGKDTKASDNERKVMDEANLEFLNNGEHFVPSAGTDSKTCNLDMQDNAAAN
In words: Substrate uptake and transport kinetics in CHO cells stably expressing OATP1B3. The following applies: 2 μM substrate, five minute accumulation, CHOvector = 1.

The target of data set [3] is T2, OATP1B3. The following applies: read-out: OATP1B3 Km; literature value; cited from earlier work.
In data set [4] the target is T2, OATP1B3.
Data set [5] has as its target T2, OATP1B3. In words: Cellular accumulation in CHO cells transiently transfected with OATP1B3. The following applies: 2 μM substrate (figure 2 legend), transiently transfected CHO cells.
Data set [6] concerns the target T3, OATP2B1 (Homo sapiens, UniProt O94956).
T3 sequence (O94956 1-709): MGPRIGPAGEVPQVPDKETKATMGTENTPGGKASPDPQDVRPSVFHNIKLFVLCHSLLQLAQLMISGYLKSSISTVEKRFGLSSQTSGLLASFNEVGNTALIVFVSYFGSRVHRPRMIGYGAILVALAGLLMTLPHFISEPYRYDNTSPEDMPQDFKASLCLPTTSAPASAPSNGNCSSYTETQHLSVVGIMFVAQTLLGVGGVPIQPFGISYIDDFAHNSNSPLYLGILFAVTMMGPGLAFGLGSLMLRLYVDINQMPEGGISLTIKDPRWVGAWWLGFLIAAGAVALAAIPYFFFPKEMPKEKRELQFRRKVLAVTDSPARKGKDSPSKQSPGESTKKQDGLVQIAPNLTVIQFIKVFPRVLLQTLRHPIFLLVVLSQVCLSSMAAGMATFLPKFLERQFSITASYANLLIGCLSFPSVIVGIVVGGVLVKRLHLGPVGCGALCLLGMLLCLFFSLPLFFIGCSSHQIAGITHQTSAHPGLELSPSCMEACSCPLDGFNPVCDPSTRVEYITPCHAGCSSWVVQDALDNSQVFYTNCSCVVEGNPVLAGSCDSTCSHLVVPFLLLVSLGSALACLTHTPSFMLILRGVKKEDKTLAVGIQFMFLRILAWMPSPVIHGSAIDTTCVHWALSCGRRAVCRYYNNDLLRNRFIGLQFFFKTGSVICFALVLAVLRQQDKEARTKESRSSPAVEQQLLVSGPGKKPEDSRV
Nature of the data set: Substrate uptake in CHO cells stably expressing OATP2B1. The following applies: 2 μM substrate, five minute accumulation, CHOvector = 1. Format: cell-based.

The target of data set [7] is T1, OATP1B1.
Data set [8] concerns the target T1, OATP1B1. Nature of the data set: Substrate uptake and transport kinetics in CHO cells stably expressing OATP1B1. Particulars: 2 μM substrate, five minute accumulation, CHOvector = 1.
For the next data set, the target named is T4, OAT3 (Homo sapiens, UniProt Q8TCC7).
T4 sequence (Q8TCC7 1-542): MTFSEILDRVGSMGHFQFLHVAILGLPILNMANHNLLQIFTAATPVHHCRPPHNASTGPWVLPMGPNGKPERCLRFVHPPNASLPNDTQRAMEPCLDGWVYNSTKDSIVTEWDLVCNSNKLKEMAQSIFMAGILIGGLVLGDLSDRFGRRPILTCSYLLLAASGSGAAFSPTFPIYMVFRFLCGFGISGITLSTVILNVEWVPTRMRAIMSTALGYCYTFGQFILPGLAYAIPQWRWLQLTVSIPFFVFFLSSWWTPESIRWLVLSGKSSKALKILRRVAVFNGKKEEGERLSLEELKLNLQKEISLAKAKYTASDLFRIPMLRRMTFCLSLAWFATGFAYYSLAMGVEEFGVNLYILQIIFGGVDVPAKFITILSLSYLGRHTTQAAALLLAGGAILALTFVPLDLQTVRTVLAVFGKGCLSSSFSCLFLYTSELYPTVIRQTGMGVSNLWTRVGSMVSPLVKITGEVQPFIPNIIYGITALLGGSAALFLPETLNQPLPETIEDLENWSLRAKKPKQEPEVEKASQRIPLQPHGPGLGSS
Type of data set: cell-based. Particulars: 2 μM substrate, transiently transfected CHO cells.

For data set [9], the target named is T3, OATP2B1. In words: Cellular accumulation in CHO cells transiently transfected with OATP2B1. Type of data set: cell-based. Particulars: 2 μM substrate, transiently transfected CHO cells.
Data set [10] has as its target T1, OATP1B1. Particulars: 2 μM substrate, transiently transfected CHO cells.
The next data set addresses T5, OCT1 (Homo sapiens, UniProt O15245).
T5 sequence (O15245 1-554): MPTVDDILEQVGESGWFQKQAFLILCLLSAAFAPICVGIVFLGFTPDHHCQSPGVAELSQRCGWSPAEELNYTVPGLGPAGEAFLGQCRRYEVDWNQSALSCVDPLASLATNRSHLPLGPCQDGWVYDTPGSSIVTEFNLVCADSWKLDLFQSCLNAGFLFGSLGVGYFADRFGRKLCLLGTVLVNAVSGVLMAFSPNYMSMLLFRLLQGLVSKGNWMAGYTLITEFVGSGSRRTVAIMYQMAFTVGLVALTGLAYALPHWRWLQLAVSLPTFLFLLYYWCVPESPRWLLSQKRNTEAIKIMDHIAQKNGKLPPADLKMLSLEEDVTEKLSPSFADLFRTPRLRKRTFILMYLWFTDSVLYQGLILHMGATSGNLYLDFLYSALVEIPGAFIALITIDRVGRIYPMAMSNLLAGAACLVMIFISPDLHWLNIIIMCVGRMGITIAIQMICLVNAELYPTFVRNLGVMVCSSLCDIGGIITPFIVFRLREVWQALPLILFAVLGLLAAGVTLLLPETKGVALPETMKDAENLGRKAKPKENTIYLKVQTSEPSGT
In words: Cellular accumulation in CHO cells transiently transfected with OCT1. Type of data set: cell-based. Particulars: 10 μM substrate, transiently transfected CHO cells.

Another data set concerns the target T6, OCT2 (Homo sapiens, UniProt O15244).
T6 sequence (O15244 1-555): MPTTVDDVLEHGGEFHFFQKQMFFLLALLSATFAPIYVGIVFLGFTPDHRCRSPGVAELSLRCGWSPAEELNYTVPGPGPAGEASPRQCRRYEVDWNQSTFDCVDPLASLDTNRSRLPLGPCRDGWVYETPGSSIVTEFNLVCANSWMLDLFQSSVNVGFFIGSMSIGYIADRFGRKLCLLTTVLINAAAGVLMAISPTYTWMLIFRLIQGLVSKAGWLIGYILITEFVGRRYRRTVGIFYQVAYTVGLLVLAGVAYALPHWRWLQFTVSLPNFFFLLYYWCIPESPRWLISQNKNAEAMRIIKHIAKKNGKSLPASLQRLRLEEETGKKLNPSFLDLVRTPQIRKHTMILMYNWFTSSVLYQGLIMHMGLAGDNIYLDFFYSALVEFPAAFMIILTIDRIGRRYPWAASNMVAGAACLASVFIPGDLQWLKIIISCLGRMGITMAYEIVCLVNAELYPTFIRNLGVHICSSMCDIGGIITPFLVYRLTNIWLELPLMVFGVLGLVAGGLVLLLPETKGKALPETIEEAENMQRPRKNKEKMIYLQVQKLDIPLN
In words: Cellular accumulation in CHO cells transiently transfected with OCT2. Format: cell-based. Particulars: 10 μM substrate, transiently transfected CHO cells.

The target in the next data set is T7, NTCP (Homo sapiens, UniProt Q14973).
T7 sequence (Q14973 1-349): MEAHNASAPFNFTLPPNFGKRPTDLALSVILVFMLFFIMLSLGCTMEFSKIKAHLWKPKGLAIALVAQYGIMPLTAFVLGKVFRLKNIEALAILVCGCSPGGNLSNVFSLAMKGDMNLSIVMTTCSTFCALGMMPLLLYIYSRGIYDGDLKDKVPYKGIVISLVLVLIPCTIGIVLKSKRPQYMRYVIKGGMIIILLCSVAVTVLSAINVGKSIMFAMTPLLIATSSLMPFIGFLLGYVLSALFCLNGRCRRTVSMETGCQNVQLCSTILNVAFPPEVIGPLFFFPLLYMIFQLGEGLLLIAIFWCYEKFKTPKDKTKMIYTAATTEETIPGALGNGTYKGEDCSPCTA
In words: Cellular accumulation in CHO cells transiently transfected with NTCP. Format: cell-based. Particulars: 2 μM substrate, transiently transfected CHO cells.

Where [11] appears, read: read-out: OATP1B3 IC50 value, inhibition of OATP1B3-mediated transport of 1.25 μM 8-FcA, 10 min, mean ± standard error, two experiments.
Setting [12] is: read-out: OATP1B1 IC50 value, inhibition of OATP1B1-mediated transport of […] 8-FcA, 10 min, mean ± standard error, two experiments.

T1 sequence (Q9Y6L6 whole entry): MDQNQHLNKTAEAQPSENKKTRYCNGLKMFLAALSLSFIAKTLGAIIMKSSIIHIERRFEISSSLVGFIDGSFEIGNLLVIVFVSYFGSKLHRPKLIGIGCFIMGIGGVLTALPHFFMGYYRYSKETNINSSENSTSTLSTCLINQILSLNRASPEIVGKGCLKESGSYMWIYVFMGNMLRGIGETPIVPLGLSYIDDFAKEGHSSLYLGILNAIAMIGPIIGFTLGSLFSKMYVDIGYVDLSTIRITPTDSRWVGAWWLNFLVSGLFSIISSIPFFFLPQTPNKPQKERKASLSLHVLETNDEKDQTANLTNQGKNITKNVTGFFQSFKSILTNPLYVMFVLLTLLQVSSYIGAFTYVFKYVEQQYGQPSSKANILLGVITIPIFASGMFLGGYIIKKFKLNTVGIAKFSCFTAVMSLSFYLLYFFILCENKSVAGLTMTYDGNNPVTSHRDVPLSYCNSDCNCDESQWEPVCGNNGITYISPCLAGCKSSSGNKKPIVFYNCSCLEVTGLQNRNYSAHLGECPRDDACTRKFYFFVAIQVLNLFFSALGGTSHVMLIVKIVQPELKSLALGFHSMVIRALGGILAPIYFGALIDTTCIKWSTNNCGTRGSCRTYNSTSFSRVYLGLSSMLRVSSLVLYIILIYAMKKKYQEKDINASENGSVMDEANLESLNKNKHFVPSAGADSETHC

For `O=C1OC(c2ccc(O)c(S(=O)(=O)O)c2)(c2ccc(O)c(S(=O)(=O)O)c2)c2c(Br)c(Br)c(Br)c(Br)c21` [bromosulfophthalein], the figures for the Km on OATP1B1 [1] and on OATP1B3 [3] were 0.3 µM and 0.4 µM, respectively. In addition, the “cellular accumulation relative to control, CHOOATP1B3” value at OATP1B3 [2] was 13.8 fold. Besides, the IC50 at OATP1B3 [4] (setting [11]) amounted to 510 ± 20 nM; on OATP1B1 [7] (setting [12]), 180 ± 20 nM. Besides, the “increase in activity versus vector control, OATP1B3” value on OATP1B3 [5] worked out at 1.26 fold. Further, the “cellular accumulation relative to control, CHOOATP2B1” value on OATP2B1 [6] is recorded as 6.6 fold.
As for `C[C@]12CC[C@@H]3c4ccc(O)cc4CC[C@H]3[C@@H]1CC[C@@H]2O[C@@H]1O[C@H](C(=O)O)[C@@H](O)[C@H](O)[C@H]1O` [estradiol-17β-d-glucuronide], the Km at OATP1B1 [1] was 5.4 µM; on OATP1B3 [3], 15.8 µM. The IC50 amounted to 23500 ± 1590 nM on OATP1B3 [4] (setting [11]) and 4880 ± 870 nM at OATP1B1 [7] (setting [12]).
On to `C[C@]12CC[C@@H]3c4ccc(OS(=O)(=O)O)cc4CC[C@H]3[C@@H]1CCC2=O` [estrone-3-sulfate], for which the “cellular accumulation relative to control, CHOOATP1B3” value at OATP1B3 [2] was 4.1 fold. Moreover, on OATP1B1 [8], the “cellular accumulation relative to control, CHOOATP1B1” value was 36.1 fold. The “increase in activity compared to vector control, OAT3” value at OAT3 was found to be 3.8 fold. For the same compound, at OATP2B1 [9], the “increase in activity compared to vector control, OATP2B1” value is 12.5 fold. The Km on OATP1B3 [3] is 58 µM. Further, the values for the IC50 on OATP1B3 [4] (setting [11]) and on OATP1B1 [7] (setting [12]) were 20100 ± 1000 nM and 53 ± 5 nM, respectively. Besides, the “increase in activity compared to vector control, OATP1B1” value on OATP1B1 [10] was found to be 3.1 fold.
`COc1ccc(Cl)cc1C(=O)NCCc1ccc(S(=O)(=O)NC(=O)NC2CCCCC2)cc1` [glibenclamide] yielded an IC50 against OATP1B3 [4] of 2690 ± 120 nM.
In the case of `CN(C)C(=N)N=C(N)N` [metformin], the “mean increase in transport over vector control, OCT1” value on OCT1 is reported as 2.4 fold. Further, at OCT2, the “mean increase in transport over vector control, OCT2” value was 24.5 fold.
Turning to `CO[C@H]1/C=C/O[C@@]2(C)Oc3c(C)c(O)c4c(O)c(c(/C=N/N5CCN(C)CC5)c(O)c4c3C2=O)NC(=O)/C(C)=C\C=C\[C@H](C)[C@H](O)[C@@H](C)[C@@H](O)[C@@H](C)[C@H](OC(C)=O)[C@@H]1C` [rifampicin], the Km at OATP1B1 [1] was 13 µM. The 50% inhibitory concentration (IC50) against OATP1B3 [4] stood at 650 ± 20 nM; on OATP1B1 [7], 990 ± 70 nM.
As for `C[C@H](CCC(=O)NCCS(=O)(=O)O)[C@H]1CC[C@H]2[C@@H]3[C@H](O)C[C@@H]4C[C@H](O)CC[C@]4(C)[C@H]3C[C@H](O)[C@]12C` [taurocholate], the “increase in transport compared to vector control, NTCP” value on NTCP was 168.9 fold.
As for `NC(Cc1cc(I)c(Oc2cc(I)c(O)c(I)c2)c(I)c1)C(=O)O` (centres unmarked) [thyroxine], the Km at OATP1B1 [1] is 3 µM. In addition, the IC50 was found to be 2130 ± 170 nM at OATP1B3 [4] and 3850 ± 880 nM against OATP1B1 [7].
